Data on 13 compounds can be found in patent US20230093099A1, “COMPOUNDS AND METHODS OF TREATING CANCERS” (CULLGEN (SHANGHAI), INC., priority 2019, published 2023).

This assay has as its system RS4;11 cells. Nature of the assay: Cell viability assay (CellTiter-Glo) in RS4;11 cells. The settings on record: Homo sapiens, 72 h; RS4;11 cells; cell viability, 3 days, CellTiter-Glo; read-out: IC50. Format: cell-based. An outline of the steps:
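RS4;11 cells seeded at 5000 per well, exposed for 3 days to 8- or 12-point 3-fold serial dilutions. Viability read by CellTiter-Glo luminescence; IC50 fitted by nonlinear least-squares regression.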
(ATP-based viability assays read luminescence as a measure of living cells.)
As a reminder, the IC50 is the midpoint of a concentration-inhibition curve. As for `Cn1c(=O)n(C2CCC(=O)NC2=O)c2cccc(NCCCCCCC(=O)N3CCN(c4ccc(Nc5nc6cccc(-c7ccc(S(C)(=O)=O)cc7)n6n5)cc4)CC3)c21` (stereo not shown) [JA-285, 3-(3-Methyl-4-((7-(4-(4-((5-(4-(methylsulfonyl)phenyl)-[1,2,4]triazolo[1,5-a]pyridin-2-yl)amino)phenyl)piperazin-1-yl)-7-oxoheptyl)amino)-2-oxo-2,3-dihydro-1H-benzo[d]imidazol-1-yl)piperidine-2,6-dione], the half-maximal inhibitory concentration (IC50) was more than 0.5 µM.

Turning to `Cc1cnc(Nc2ccc(N3CCN(C(=O)CCCCCC(=O)N[C@H](C(=O)N4C[C@H](O)C[C@H]4C(=O)NCc4ccc(-c5scnc5C)cc4)C(C)(C)C)CC3)cc2)nc1Nc1cccc(S(=O)(=O)NC(C)(C)C)c1` [JA-025, (2S,4R)-1-((S)-2-(7-(4-(4-((4-((3-(N-(tert-Butyl)sulfamoyl)phenyl)amino)-5-methylpyrimidin-2-yl)amino)phenyl)piperazin-1-yl)-7-oxoheptanamido)-3,3-dimethylbutanoyl)-4-hydroxy-N-(4-(4-methylthiazol-5-yl)benzyl)pyrrolidine-2-carboxamide], the IC50 was more than 10 µM.

Regarding `Cc1cnc(Nc2ccc(N3CCN(C(=O)CCCCCCCNc4cccc5c4C(=O)N(C4CCC(=O)NC4=O)C5=O)CC3)cc2)nc1Nc1cccc(S(=O)(=O)NC(C)(C)C)c1` (stereo not shown) [JA-016, N-(tert-Butyl)-3-((2-((4-(4-(8-((2-(2,6-dioxopiperidin-3-yl)-1,3-dioxoisoindolin-4-yl)amino)octanoyl)piperazin-1-yl)phenyl)amino)-5-methylpyrimidin-4-yl)amino)benzenesulfonamide], the IC50 is more than 10 µM.

As for `O=C(CN1CCC(n2cc(-c3cnc4cccc(-c5cc(F)c(CN6CCOCC6)c(F)c5)c4n3)cn2)CC1)NCCCCNc1ccc2c(c1)C(=O)N(C1CCC(=O)NC1=O)C2=O` (stereo not shown) [JA-176, 2-(4-(4-(8-(3,5-Difluoro-4-(morpholinomethyl)phenyl)quinoxalin-2-yl)-1H-pyrazol-1-yl)piperidin-1-yl)-N-(4-((2-(2,6-dioxopiperidin-3-yl)-1,3-dioxoisoindolin-5-yl)amino)butyl)acetamide], the IC50 is 2.79 µM.

Consider `Cc1ncsc1-c1ccc(CNC(=O)[C@@H]2C[C@@H](O)CN2C(=O)[C@@H](NC(=O)COCCNC(=O)CN2CCN(c3ccc(Nc4nc5cccc(-c6ccc(S(C)(=O)=O)cc6)n5n4)cc3)CC2)C(C)(C)C)cc1` [JA-132, (2S,4R)-1-((S)-3,3-Dimethyl-2-(2-(2-(2-(4-(4-((5-(4-(methylsulfonyl)phenyl)-[1,2,4]triazolo[1,5-a]pyridin-2-yl)amino)phenyl)piperazin-1-yl)acetamido)ethoxy)acetamido)butanoyl)-4-hydroxy-N-(4-(4-methylthiazol-5-yl)benzyl)pyrrolidine-2-carboxamide], for which the IC50 was more than 10 µM.

Consider `Cc1ncsc1-c1ccc(CNC(=O)[C@@H]2C[C@@H](O)CN2C(=O)[C@@H](NC(=O)CCOCCC(=O)N2CCN(c3ccc(Nc4nc5cccc(-c6ccc(S(C)(=O)=O)cc6)n5n4)cc3)CC2)C(C)(C)C)cc1` [JA-082, 4-Hydroxy-1-(2-{3-[3-(4-{4-[5-(4-methanesulfonyl-phenyl)-[1,2,4]triazolo[1,5-a]pyridin-2-ylamino]-phenyl}-piperazin-1-yl)-3-oxo-propoxy]-propionylamino}-3,3-dimethyl-butyryl)-pyrrolidine-2-carboxylic acid 4-(4-methyl-thiazol-5-yl)-benzylamide], for which the IC50 stood at 6.43 µM.

Regarding `Cc1ncsc1-c1ccc(CNC(=O)[C@@H]2C[C@@H](O)CN2C(=O)[C@@H](NC(=O)CCCCNC(=O)CN2CCN(c3ccc(Nc4nc5cccc(-c6ccc(S(C)(=O)=O)cc6)n5n4)cc3)CC2)C(C)(C)C)cc1` [JA-130, (2S,4R)-1-((S)-3,3-Dimethyl-2-(5-(2-(4-(4-((5-(4-(methylsulfonyl)phenyl)-[1,2,4]triazolo[1,5-a]pyridin-2-yl)amino)phenyl)piperazin-1-yl)acetamido)pentanamido)butanoyl)-4-hydroxy-N-(4-(4-methylthiazol-5-yl)benzyl)pyrrolidine-2-carboxamide], the IC50 was more than 10 µM.

In the case of `O=C1CCC(N2Cc3ccc(C#CCCCCC(=O)N4CCC(n5cc(-c6cnc7cccc(-c8cc(F)c(CN9CCOCC9)c(F)c8)c7n6)cn5)CC4)cc3C2=O)C(=O)N1` (stereo not shown) [JA-259, 3-(6-(7-(4-(4-(8-(3,5-Difluoro-4-(morpholinomethyl)phenyl)quinoxalin-2-yl)-1H-pyrazol-1-yl)piperidin-1-yl)-7-oxohept-1-yn-1-yl)-1-oxoisoindolin-2-yl)piperidine-2,6-dione], the IC50 was more than 10 µM.

For `CS(=O)(=O)c1ccc(-c2cccc3nc(Nc4ccc(N5CCN(C(=O)CCCCC#Cc6ccc7c(c6)C(=O)N(C6CCC(=O)NC6=O)C7=O)CC5)cc4)nn23)cc1` (stereo not shown) [JA-248, 2-(2,6-Dioxopiperidin-3-yl)-5-(7-(4-(4-((5-(4-(methylsulfonyl)phenyl)-[1,2,4]triazolo[1,5-a]pyridin-2-yl)amino)phenyl)piperazin-1-yl)-7-oxohept-1-yn-1-yl)isoindoline-1,3-dione], the concentration for half-maximal inhibition (IC50) came out at 0.247 µM.

For `Cc1cnc(Nc2ccc(N3CCN(CC(=O)NCCNc4cccc5c4C(=O)N(C4CCC(=O)NC4=O)C5=O)CC3)cc2)nc1Nc1cccc(S(=O)(=O)NC(C)(C)C)c1` (stereo not shown) [JA-090, 2-(4-(4-((4-((3-(N-(tert-Butyl)sulfamoyl)phenyl)amino)-5-methylpyrimidin-2-yl)amino)phenyl)piperazin-1-yl)-N-(2-((2-(2,6-dioxopiperidin-3-yl)-1,3-dioxoisoindolin-4-yl)amino)ethyl)acetamide], the IC50 came out at 3.48 µM.

As to `Cc1ncsc1-c1ccc(CNC(=O)[C@@H]2C[C@@H](O)CN2C(=O)[C@@H](NC(=O)COCC(=O)N2CCN(c3ccc(Nc4nc5cccc(-c6ccc(S(C)(=O)=O)cc6)n5n4)cc3)CC2)C(C)(C)C)cc1` [JA-072, (2S,4R)-1-((S)-3,3-Dimethyl-2-(2-(2-(4-(4-((5-(4-(methylsulfonyl)phenyl)-[1,2,4]triazolo[1,5-a]pyridin-2-yl)amino)phenyl)piperazin-1-yl)-2-oxoethoxy)acetamido)butanoyl)-4-hydroxy-N-(4-(4-methylthiazol-5-yl)benzyl)pyrrolidine-2-carboxamide], the IC50 amounted to 6.46 µM.

With `Cc1ncsc1-c1ccc(CNC(=O)[C@@H]2C[C@@H](O)CN2C(=O)[C@@H](NC(=O)CCOCCNC(=O)CN2CCC(n3cc(-c4cnc5cccc(-c6cc(F)c(CN7CCOCC7)c(F)c6)c5n4)cn3)CC2)C(C)(C)C)cc1` [JA-160, (2S,4R)-1-((S)-2-(3-(2-(2-(4-(4-(8-(3,5-Difluoro-4-(morpholinomethyl)phenyl)quinoxalin-2-yl)-1H-pyrazol-1-yl)piperidin-1-yl)acetamido)ethoxy)propanamido)-3,3-dimethylbutanoyl)-4-hydroxy-N-(4-(4-methylthiazol-5-yl)benzyl)pyrrolidine-2-carboxamide], the half-maximal inhibitory concentration (IC50) is more than 10 µM.

Turning to `CS(=O)(=O)c1ccc(-c2cccc3nc(Nc4ccc(N5CCN(CC(=O)NCCOCCNc6cccc7c6C(=O)N(C6CCC(=O)NC6=O)C7=O)CC5)cc4)nn23)cc1` (stereo not shown) [JA-110, N-(2-(2-((2-(2,6-Dioxopiperidin-3-yl)-1,3-dioxoisoindolin-4-yl)amino)ethoxy)ethyl)-2-(4-(4-((5-(4-(methylsulfonyl)phenyl)-[1,2,4]triazolo[1,5-a]pyridin-2-yl)amino)phenyl)piperazin-1-yl)acetamide], the IC50 was more than 10 µM.
